This is an account of results in patent US12492373B2, “Production method for nerve tissue” (Racthera Co., Ltd., priority 2014, dated 2025).

A value given as a limit tells only on which side of the number the result lay.

Test [1] deals with human iPS cells (1231A3 strain). Kind of test: Immunostaining for pluripotent stem cell marker Oct3/4 after preconditioning. It counts as cell-based. Particulars: 1 day; SB431542 5 μM, LDN193189 100 nM, SAG 300 nM, or SB431542 5 μM and LDN193189 100 nM; positive = intensity not less than 2 times background. The procedure:
Human iPS cells (1231A3 strain) were subjected to feeder-free culturing according to the method described in Example 1 in StemFit medium until one day before subconfluence. The human iPS cells one day before subconfluence were subjected to feeder-free culturing in the presence of SB431542 (TGFβR inhibitor, 5 μM), LDN193189 (BMPR inhibitor, 100 nM), SAG (Shh activating substance, 300 nM), or TGFβR inhibitor and BMPR inhibitor (SB431542 5 μM, and LDN193189 100 nM) (step 1: preconditioning treatment), or in the absence thereof (step 1: without preconditioning) for 1 day. The obtained cells were each fixed with 4% para-formaldehyde, and immunostaining for Oct3/4, which is one of the pluripotent stem cell markers, was performed and the immunostained cells were subjected to bright field observation and fluorescence image observation under an inverted fluorescence microscope (BIOREVO, KEYENCE).

Test [2] shares this test system. Nature of the test: Immunostaining of aggregate sections for retinal tissue markers Chx10, Rx. It counts as cell-based. How it is done: Here, as step 3, culturing was performed under the following condition 1 and condition 2: Under condition 1(+BMP), on day 6 after the start of suspension culturing, the medium was changed to a medium free of Y27632 and containing human recombinant BMP4 (manufactured by R&D) such that the final concentration of exogenous human recombinant BMP4 was 1.5 nM (55 ng/ml) (FIG. 6B, D). Under condition 2(−BMP), on day 6 after the start of suspension culturing, a half amount of the medium was changed to a medium free of Y27632 and free of a BMP signal transduction pathway activating substance, without adding exogenous human recombinant BMP4 (FIG. 6A, C).
The thus-prepared cell aggregates on day 23 after the start of suspension culturing, which were produced from the above iPS cells that underwent a preconditioning treatment in step 1 as a starting material were fixed with 4% para-formaldehyde to prepare frozen sections. These frozen sections were immunostained for Chx10 (anti-Chx10 antibody, Exalpha, sheep), which is one of the retinal tissue markers, or Rx (anti-Rx antibody, Takara, guinea pig), which is one of the retinal tissue markers. These immunostained sections were observed under an inverted fluorescence microscope.
Cell aggregate were prepared according to the method described in Example 8 under conditions in which human iPS cells using StemFit medium as a feeder-free medium were used as a starting material, TGFβR inhibiting substance (SB431542) or BMPR inhibiting substance (LDN193189) was used in step 1, Shh signal transduction pathway activating substance was used in step 2, and BMP signal transduction pathway activating substance was added or not added in step 3. Neural tissues were formed in all the aggregates formed under all these conditions on day 23 after the start of suspension culturing. The above cell aggregates were fixed with 4% para-formaldehyde to prepare frozen sections. These frozen sections were immunostained for Chx10 (anti-Chx10 antibody, Exalpha, sheep), which is one of the retinal tissue markers, or Rx (anti-Rx antibody, Takara, guinea pig), which is one of the retinal tissue markers. These immunostained sections were observed under an fluorescence microscope. […] Furthermore, it was found from the analysis of serial sections that, in a neural tissue having a high (not less than 95%) proportion of Chx10-positive cells, Rx is also strongly positive (FIG. 9B, D, F, H).
Cell aggregates were prepared according to the method described in Example 10 by using, as a starting material, human iPS cells using Essential 8 medium as a feeder-free culturing, under conditions that TGFβR inhibiting substance (SB431542) are used in step 1, a Shh signal transduction pathway activating substance are used in step 2, and a BMP signal transduction pathway activating substance are added or are not added in step 3. The cell aggregates on day 18 after the start of suspension culturing were each fixed with 4% para-formaldehyde to prepare frozen section. These frozen sections were immunostained for Chx10 (anti-Chx10 antibody, Exalpha, sheep), which is one of the retinal tissue markers, or Rx (anti-Rx antibody, Takara, guinea pig), which is one of the retinal tissue markers, and observed under a fluorescence microscope. […] Furthermore, it was found from the analysis of serial sections that, in a neural tissue having a high (not less than 95%) proportion of Chx10-positive cells, Rx is also strongly positive. […]
A Cell aggregate was formed on day 18 after the start of suspension culturing under every conditions, and a neural tissue was formed (FIG. 14, upper panel). The above cell aggregates on day 18 after the start of suspension culturing were each fixed with 4% para-formaldehyde to prepare frozen section. […]

Setting [3] is: Essential 8 medium, SB431542 in step 1, SAG in step 2, addition of BMP4 in step 3, day 18.
Setting [4] is: Essential 8 medium, SB431542 in step 1, SAG in step 2, no addition of BMP4 in step 3, day 18.
[5] abbreviates: SB431542 or LDN193189 in step 1, SAG 300 nM in step 2, BMP4 1.5 nM in step 3, StemFit, day 23.
Where [6] appears, read: LDN193189 100 nM in step 1, no SAG in step 2, BMP4 1.5 nM on day 6 in step 3, day 23.
The mark [7] stands for this setting: LDN193189 100 nM in step 1, no SAG in step 2, without BMP4 in step 3, day 23.

For the molecule `NC(=O)c1ccc(-c2nc(-c3ccc4c(c3)OCO4)c(-c3ccccn3)[nH]2)cc1` [SB431542, 4-(5-benzol[1,3]dioxol-5-yl-4-pyridin-2-yl-1H-imidazol-2-yl)-benzamide], the “Oct3/4 immunostaining of preconditioned cells” value (“Oct3/4 immunostaining” for short) in test [1] was “Oct3/4-positive”. Besides, in test [2] (setting [3]), the “proportion of Chx10-positive cells in the total cells” value is given as ≥ 20% and the “proportion of Rx-strong positive cells in the total cells” value was ≥ 30%. Besides, in test [2] (setting [4]), the “Rx-strong positive (corresponding to retina)” value is “less than 3%”, the “Rx-weak positive (corresponding to neural tissue other than retina)” value is “less than 7%”, the “proportion of Chx10-positive cells” value is listed as “less than 3%” and the “proportion of Rx-positive cells in the total cells” value (from here on “proportion of Rx-positive cells”) is “less than 10%”. Moreover, in test [2] (setting [5]), the “proportion of Chx10-positive cells in the total cells” value is recorded as ≥ 70% and the “proportion of Rx-positive cells” value is ≥ 80%.
Consider `CNC1CCC(N(Cc2cccc(-c3ccncc3)c2)C(=O)c2sc3ccccc3c2Cl)CC1` (centres unmarked) [SAG], for which, in test [1], the “Oct3/4 immunostaining” value is reported as “Oct3/4-positive”. Besides, the “proportion of Chx10-positive cells in the total cells” value in test [2] (A83-01 0.5 μM and SAG 300 nM in step 1, substance added in step 2 (SAG 30 nM, Purmorphamine 0.2 μM or human recombinant Shh 300 ng/ml), BMP4 1.5 nM on day 3, day 20) is reported as “about 90%”.
Turning to `c1ccc2c(-c3cnn4cc(-c5ccc(N6CCNCC6)cc5)cnc34)ccnc2c1` [LDN193189, 4-[6-(4-piperazin-1-ylphenyl)pyrazolo[1,5-a]pyrimidin-3-yl]quinoline], in test [1], the “Oct3/4 immunostaining” value is listed as “Oct3/4-positive”. For the same molecule, in test [2] (setting [6]), the “proportion of Chx10-positive cells in the total cells” value was “about 60%” and the “proportion of Rx-positive cells” value is listed as “about 60%”. In test [2] (setting [7]), the “Rx-strong positive (corresponding to retina)” value is “less than 3%”, the “Rx-weak positive (corresponding to neural tissue other than retina)” value is given as “less than 7%”, the “proportion of Chx10-positive cells” value was “less than 3%” and the “proportion of Rx-positive cells” value is listed as “less than 10%”. In test [2] (setting [5]), the “proportion of Chx10-positive cells in the total cells” value is given as ≥ 40% and the “proportion of Rx-positive cells” value was ≥ 50%.
